Measurements as given in patent publication US20250388623A1, “PEPTIDE INHIBITOR AND USE THEREOF” (CHENGDU BRILLIANT INSPIRATION BIOTHERAPEUTICS CO., LTD, priority 2022, published 2025).
Bridge positions count the residues as written; N and C are the ends. Peptide text beside a SMILES is read from it.

Columns and labels:
[1] = system: mouse lung fibrosis model induced by bleomycin (BLM); experiment: Hydroxyproline (HYP) content / collagen deposition in lung, BLM mouse fibrosis model; format: in vivo; conditions: 3 mg/kg intratracheal twice weekly x4 from Day 8, Day 21, BLM model group = 100.00
Description: This Example was to evaluate the inhibitory effect of polypeptides on collagen deposition in fibrotic tissues. In this example, 6- to 8-week-old male C57/6J mice weighing 18-20 g were used as subjects for the study. The experimental animals were randomized into groups, eight animals in each group. On the day of modeling (Day 1), a 0.7 USP/kg dose of bleomycin solution was administered via the tracheal route to induce the model. Treatment dosing started on Day 8. Each peptide-treated group received the peptide drug intratracheally at a dosage of 3 mg/kg, administered twice weekly for a total of four doses. The BLM model group received an equal volume of solvent (saline) as a control. The administration procedure followed that described in Example 4. Day 21 was set as the experimental endpoint for assessing the degree of fibrosis in the model.
On Day21, the animals were dissected to collect lung tissues, and after grinding the lung tissues in liquid nitrogen, hydroxyproline (HYP) was extracted from the tissue using acid hydrolysis. HYP is a unique amino acid found in collagen, and the determination of HYP content is an important indicator reflecting the metabolism of collagen tissue and the degree of fibrosis. 1 mL of 6N HCl was added per 100 mg of tissue and thoroughly mixed, followed by hydrolysis at 121° C. for 6 hours. The hydrolysate was centrifuged, and the resulting supernatant, along with a gradient of HYP standard solutions (Sigma, Catalog No. V900395-25G) at different concentrations, was used for HYP content determination. To each well of a 96-well plate, 10 μL of the hydrolysate supernatant was added and dried in an oven at 65° C. 100 μL per well of 1.4% chloramine T oxidizing solution (Sigma, Catalog No. 23270-50G) was added, and incubated at room temperature for 15 minutes. 100 μL per well of Ehrlich's color development solution (Solarbio, Catalog No. G1290) was added and incubated at 65° C. for 30 minutes. The absorbance of each sample well was measured at 560 nm (OD560) using a multifunctional microplate reader (TECAN, model Infinite 200 Pro). The total HYP content in the lung tissue from each experimental group was calculated to determine the reduction percentage of HYP content in the peptide-treated group relative to the model group, and the inhibitory effect of the peptide molecule on collagen deposition at the fibrotic site was assessed.

[2] = system: rat fibrotic disease model (bleomycin); experiment: Hydroxyproline (HYP) content / collagen deposition in lung, bleomycin rat fibrosis model; format: in vivo; conditions: 2 mg/kg intratracheal twice weekly x4 from Day 1, Day 15, model group = 100.00
Description: This Example was to evaluate the inhibitory effect of polypeptides on collagen deposition at the pathological sites of pulmonary fibrosis. 6- to 8-week-old male SD rats weighing 200 to 220 g were used as subjects for the study. The experimental animals were randomized into groups, 8 animals in each group. On the day of modeling (Day 1), a single dose of 1.8 USP/kg of bleomycin solution was administered via the tracheal route to the model group and each peptide-treated group to induce the model. Starting on Day 1, each peptide-treated group received intratracheal administration of the peptide at a dosage of 2 mg/kg, with a dosing frequency of twice a week, for a total of four administrations. The model group received an equal volume of solvent (saline) as a control, with the volume being 100 μL. The procedure followed that described in Example 4. Day 15 was set as the experimental endpoint for assessing the degree of fibrosis in the model.
On Day 15, the animals were dissected to collect lung tissues. After grinding the rat lung tissues in liquid nitrogen, total hydroxyproline (HYP) was extracted from the tissues using acid hydrolysis, and the HYP content was determined by chloramine T oxidation colorimetry. 1 mL of 6N HCl was added per 100 mg of tissue and thoroughly mixed, followed by hydrolysis at 121° C. for 6 hours. The hydrolysate was centrifuged, and the resulting supernatant was used for HYP content determination. To a 96-well plate, the hydrolysate supernatant, or a gradient of HYP standard solutions (Sigma, Catalog No. V900395-25G) at different concentrations, was added in 10 μL per well, and dried in an oven at 65° C. 100 μL per well of 1.4% chloramine T oxidizing solution (Sigma, Catalog No. 23270-50G) was added, and incubated at room temperature for 15 minutes. 100 μL per well of Ehrlich's color development solution (Solarbio, Catalog No. G1290) was added and incubated at 65° C. for 30 minutes. The absorbance of each sample well was measured at 560 nm (OD560) using a multifunctional microplate reader (TECAN, model Infinite 200 Pro). The total HYP content in the lung tissue from each experimental group was calculated to determine the reduction percentage of HYP content in the peptide-treated group relative to the model group, and the inhibitory effect of the peptide molecule on collagen deposition at the fibrotic site was assessed.

[3] = system: human hepatic stellate cells (LX-2); experiment: ECM-related gene expression (RT-qPCR) in TGF-β1-stimulated LX-2 cells, liver fibrosis cell model; format: cell-based; conditions: 20 ng/mL TGF-β1 24 h, then 100 μM polypeptide 48 h; for COL I gene expression Mean: blank control 1.00, model group 6.62; for FN gene expression Mean: blank control 1.00, model group 11.38
Source text: This Example was to evaluate the inhibitory effect of polypeptides on the expression of extracellular matrix (ECM)-related genes in a cellular model of liver fibrosis. The experiment utilized human hepatic stellate cells (LX-2), which are the primary source of myofibroblasts in the liver. Upon activation, hepatic stellate cells transform into myofibroblasts, which secrete ECM in live and play a direct role in the development of hepatic fibrosis. Transient stimulation of LX-2 cells with TGF-β1 can initiate a positive feedback regulation of TSP-1-TGF-β1 activation, which continuously enhances myofibroblast characteristics, including ECM production.
This experiment was performed as follows. LX-2 cells (Procell, CL-0560) were stimulated by 20 ng/mL TGF-β1 (Genscript, Catalog No.Z03411) for 24 h, then added 100 μM polypeptide and cultured for 48 h. An equal volume of solvent was added to the model group, and LX-2 cells without any treatment were used as a blank control. After that, LX-2 cells were collected and total RNA was extracted for RT-qPCR to detect the expression of ECM-related genes, EDA-Fibronectin (fibronectin, FN) and Collagen I (COL1). The polypeptides were able to reduce the expressions of FN and COL1 genes in LX-2 and inhibit ECM production.

Compound	HYP content in lung tissue relative to model group, Mean (%) [1] [%]	HYP content in lung tissue relative to model group, Mean (%) [2] [%]	COL I gene expression Mean [3]	FN gene expression Mean [3]
C[C@@H]1NC(=O)[C@H](CC(=O)O)NC(=O)[C@H](CCC(N)=O)NC(=O)[C@H]([C@@H](C)O)NC(=O)[C@H](CC(N)=O)NC(=O)[C@H](CC(=O)O)NC(=O)[C@H](CCC(=O)O)NC1=O [SEQ ID NO: 40, cyclo[Thr-Gln-Asp-Ala-Glu-Asp-Asn]] (cyclo(AEDNTQD))	77.88	72.93	–	–
CC(=O)N[C@H](C(=O)N[C@H]1CSSC[C@@H](C(=O)O)NC(=O)[C@H](CC(N)=O)NC(=O)[C@H](CC(=O)O)NC(=O)[C@H](CCC(=O)O)NC(=O)[C@H](C)NC(=O)[C@H](CC(=O)O)NC1=O)[C@@H](C)O [SEQ ID NO: 43, Ac-Thr-cyclo[Cys-Asp-Ala-Glu-Asp-Asn-Cys]] (Ac-TCDAEDNC-OH; disulfide 2-8)	72.18	72.91	4.63	5.80
CC(=O)N[C@H](C(=O)N[C@H]1CSSC[C@@H](C(N)=O)NC(=O)[C@H](CC(N)=O)NC(=O)[C@H](CC(=O)O)NC(=O)[C@H](CCC(=O)O)NC(=O)[C@H](C)NC(=O)[C@H](CC(=O)O)NC1=O)[C@@H](C)O [SEQ ID NO: 44, Ac-Thr-cyclo[Cys-Asp-Ala-Glu-Asp-Asn-Cys]-NH2] (Ac-TCDAEDNC-NH2; disulfide 2-8)	78.25	65.55	–	–
C[C@@H]1NC(=O)[C@H]([C@@H](C)O)NC(=O)[C@H](CC(N)=O)NC(=O)[C@H](CC(=O)O)NC(=O)[C@H](CCC(=O)O)NC(=O)[C@@H]2CCCN2C(=O)[C@H](CC(=O)O)NC(=O)[C@H](CCC(N)=O)NC(=O)[C@H]([C@@H](C)O)NC(=O)[C@H](CO)NC1=O [SEQ ID NO: 46, cyclo[Thr-Gln-Asp-Pro-Glu-Asp-Asn-Thr-Ala-Ser]] (cyclo(ASTQDPEDNT))	80.16	66.46	–	–
Ac-TQDAEDN-NH2 [SEQ ID NO: 06, Ac-Thr-Gln-Asp-Ala-Glu-Asp-Asn-NH2]	79.51	80.30	4.57	5.72
Ac-TQDAEDNTASH-NH2 [SEQ ID NO: 33, Ac-Thr-Gln-Asp-Ala-Glu-Asp-Asn-Thr-Ala-Ser-His-NH2]	82.23	80.28	4.49	6.80
Ac-TQDAEDPTA-NH2 [SEQ ID NO: 22, Ac-Thr-Gln-Asp-Ala-Glu-Asp-Pro-Thr-Ala-NH2]	72.66	68.30	4.63	6.62
Ac-TQDAEDPTAS-NH2 [SEQ ID NO: 25, Ac-Thr-Gln-Asp-Ala-Glu-Asp-Pro-Thr-Ala-Ser-NH2]	77.75	81.45	4.00	6.47
Ac-TQDPEDNTAS-NH2 [SEQ ID NO: 26, Ac-Thr-Gln-Asp-Pro-Glu-Asp-Asn-Thr-Ala-Ser-NH2]	72.07	78.75	4.30	5.79
